Test in all cases: Bliss excess, mean over the matrix (fraction); higher = more synergy
In one test the test system is GOTO (Neuroblastoma). A digest of the protocol:
(§1)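 Cell lines grown in DMEM/F12 or RPMI with 10% FBS were plated in 1536-well plates and held 24 hours at 37°C, 5% CO2 before 72 hours of exposure to two-drug dose matrices, with DMSO typically at 0.2%. CellTiter-Glo 2.0 luminescence gave viability, which was converted to inhibition. Vehicle wells were set to 0 and blank wells to 1. Combination Emax is the second-highest inhibition in the matrix, and Bliss excess is the observed combination effect minus the expected EA + EB − EA·EB, where EA and EB are the single-agent effects.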

Test [1] has as its system KYSE-150 (Esophageal Squamous Cell Carcinoma). In short, it runs like this: as §1
Test [2] concerns KLE (Endometrial Carcinoma). In short, it runs like this: as §1
Test [3] has as its system HuP-T3 (Pancreatic Carcinoma). In short, it runs like this: as §1
In test [4] the test system is NCI-H2347 (Lung Adenocarcinoma). In short, it runs like this:
as §1

In test [5] the test system is KYSE-50 (Esophageal Squamous Cell Carcinoma). In short, it runs like this:
as §1

Test [6] has as its system EMC-BAC-2 (Non-Small Cell Lung Carcinoma). In short, it runs like this:
as §1

Test [7] deals with KU-19-19 (Bladder Carcinoma). In short, it runs like this: as §1
Test [8] has as its system SCC-3 (B-Cell Non-Hodgkin's Lymphoma). A digest of the protocol:
as §1

Another test has as its system EW-13 (Ewing's Sarcoma). A digest of the protocol: as §1
Test [9] relates to EBC-1 (Squamous Cell Lung Carcinoma). In short, it runs like this: as §1
Test [10] deals with OVISE (Ovarian Carcinoma). A digest of the protocol: as §1
A further test has as its system NH-12 (Neuroblastoma). A digest of the protocol: as §1
Test [11] has as its system KINGS-1 (Low Grade Glioma). A digest of the protocol: as §1

Regarding `CN(CCO)CC[C@H](CSc1ccccc1)Nc1ccc(S(=O)(=O)NC(=O)c2ccc(N3CCC([C@@H](O)c4ccccc4-c4ccc(Cl)cc4)CC3)cc2)cc1S(=O)(=O)C(F)(F)F` [AZD4320] + Cc1cc2ncnn2cc1Nc1ncc2c(n1)n(C1CCOCC1)c(=O)n2C [AZD7648] (first compound max 1 µM, 7x7, partner max 10 µM), the Bliss excess in the test with GOTO (Neuroblastoma) was 0.075; in test [1], -0.0396; in test [2], -0.0116; in test [3] it was -0.0362; in [4], -0.0312; in [5] it was -0.0198. For the same compound, the Bliss excess in [6] was -0.0482; in test [7], -0.0359; in test [8] it was -0.0018; with EW-13 (Ewing's Sarcoma), -0.0223; in test [9], -0.0396; in [10], -0.0033. The Bliss excess in the test on NH-12 (Neuroblastoma) is -0.0248; in test [11], -0.0152.
Regarding `NC1(C(=O)N[C@@H](CCO)c2ccc(Cl)cc2)CCN(c2ncnc3[nH]ccc23)CC1` [Capivasertib] + Cn1cnc2c(F)c(Nc3ccc(Br)cc3Cl)c(C(=O)NOCCO)cc21 [Selumetinib] (first compound max 10 µM, 7x7, partner max 10 µM), the Bliss excess with GOTO (Neuroblastoma) was 0.0355; in [1], 0.0676; in [2], -0.011; in test [3], -0.0559; in test [4], -0.0158; in [5] it was -0.036. In addition, the Bliss excess was -0.0445 in test [6]; -0.0364 in test [7]; 0.0627 in [8]; 0.0097 in the test with EW-13 (Ewing's Sarcoma); 0.0557 in [9]; -0.0063 in test [10]. In addition, the Bliss excess with NH-12 (Neuroblastoma) turned out to be 0.0644; in [11], 0.0272.
As for `NC1(C(=O)N[C@@H](CCO)c2ccc(Cl)cc2)CCN(c2ncnc3[nH]ccc23)CC1` [Capivasertib] + CC(C)n1c(=O)n(C)c2cnc3cc(F)c(-c4ccc(OCCCN5CCCCC5)nc4)cc3c21 [AZD1390] (first compound max 10 µM, 7x7, partner max 0.3 µM), the Bliss excess in the test with GOTO (Neuroblastoma) is -0.0465; in [1] it was 0.0164; in [2] it was -0.0455; in [3], -0.0444; in test [4], -0.0524; in test [5], -0.0723. Further, the Bliss excess in test [6] was -0.0761; in test [7], -0.0939; in test [8] it was -0.0169; in the test with EW-13 (Ewing's Sarcoma) it was -0.024; in test [9], -0.0046; in test [10], -0.042. The Bliss excess with NH-12 (Neuroblastoma) was -0.134; in test [11], -0.0398.
For `COc1cccc(OCCCN)c1-c1cc(Nc2cnc(C#N)cn2)n[nH]1` [Prexasertib] + C=CCn1c(=O)c2cnc(Nc3ccc(N4CCN(C)CC4)cc3)nc2n1-c1cccc(C(C)(C)O)n1 [AZD1775] (first compound max 1 µM, partner max 1 µM), the Bliss excess is 0.0074 with GOTO (Neuroblastoma); 0.149 in test [1]; 0.112 in test [2]; 0.0054 in test [3]; -0.0548 in test [4]; 0.0242 in test [5]. The Bliss excess in [6] was found to be 0.0413; in test [7], 0.0222; in test [8], 0.051; with EW-13 (Ewing's Sarcoma) it was 0.0788; in test [9] it was 0.0628; in test [10], 0.0144. The Bliss excess amounted to 0.047 with NH-12 (Neuroblastoma) and 0.072 in test [11].
For the compound `CCN(CCO)CCCOc1ccc2c(Nc3cc(CC(=O)Nc4cccc(F)c4)[nH]n3)ncnc2c1` [AZD2811] + C=CCn1c(=O)c2cnc(Nc3ccc(N4CCN(C)CC4)cc3)nc2n1-c1cccc(C(C)(C)O)n1 [AZD1775] (first compound max 1 µM, partner max 1 µM), the Bliss excess is -0.0162 in the test on GOTO (Neuroblastoma); 0.0438 in [1]; -0.0513 in test [2]; -0.0366 in test [3]; -0.0475 in test [4]; 0.0006 in test [5]. Besides, the Bliss excess in test [6] was -0.0112; in test [7], -0.014; in [8], -0.011; with EW-13 (Ewing's Sarcoma) it was 0.0393; in test [9] it was 0.0075; in test [10], -0.0332. Besides, the Bliss excess is -0.0012 with NH-12 (Neuroblastoma) and -0.0173 in test [11].
In the case of `CC1(C)CCC(CN2CCN(c3ccc(C(=O)NS(=O)(=O)c4ccc(NCC5CCOCC5)c([N+](=O)[O-])c4)c(Oc4cnc5[nH]ccc5c4)c3)CC2)=C(c2ccc(Cl)cc2)C1` [Venetoclax] + C1CN(CCC1(C(=O)N[C@@H](CCO)C2=CC=C(C=C2)Cl)N)C3=NC=NC4=C3C=CN4 [Capivasertib] (first compound max 1 µM, 7x7, partner max 3 µM), the Bliss excess in the test with GOTO (Neuroblastoma) is 0.0111; in [1] it was 0.0107; in test [2], -0.106; in test [3] it was -0.0387; in test [4] it was -0.0627; in test [5], -0.0418. The Bliss excess in test [6] was -0.116; in test [7], -0.0465; in test [8], -0.0335; in the test on EW-13 (Ewing's Sarcoma), -0.0302; in test [9] it was -0.0395; in [10], -0.0059. The Bliss excess with NH-12 (Neuroblastoma) is -0.0289; in [11], -0.0696.
With `CC1(C)CCC(CN2CCN(c3ccc(C(=O)NS(=O)(=O)c4ccc(NCC5CCOCC5)c([N+](=O)[O-])c4)c(Oc4cnc5[nH]ccc5c4)c3)CC2)=C(c2ccc(Cl)cc2)C1` [Venetoclax] + COc1cc(Nc2ncc3c(n2)-c2ccc(Cl)cc2C(c2c(F)cccc2OC)=NC3)ccc1C(=O)O [Alisertib] (first compound max 1 µM, 7x7, partner max 10 µM), the Bliss excess in the test on GOTO (Neuroblastoma) was -0.0217; in [1] it was -0.0364; in test [2], -0.0709; in [3] it was -0.0527; in [4], -0.0487; in test [5], -0.0101. Moreover, the Bliss excess was -0.0033 in test [6]; -0.0086 in [7]; 0.0308 in test [8]; 0.0517 with EW-13 (Ewing's Sarcoma); -0.0271 in test [9]; -0.0523 in [10]. The Bliss excess is 0.0844 with NH-12 (Neuroblastoma) and -0.0049 in test [11].
On to `COc1nnc2ccc(N3CCC(c4ccc(OCCN5CCN(C)C(=O)[C@H]5C)cc4)CC3)nn12` [AZD5153] + CCN(CCO)CCCOc1ccc2c(Nc3cc(CC(=O)Nc4cccc(F)c4)[nH]n3)ncnc2c1 [AZD2811] (first compound max 1 µM, 7x7, partner max 1 µM), for which the Bliss excess in the test on GOTO (Neuroblastoma) was -0.0561; in [1], -0.0134; in [2], -0.0704; in [3], -0.0306; in test [4], -0.0549; in test [5], -0.0309. The Bliss excess was -0.0242 in [6]; -0.0741 in [7]; 0.0474 in [8]; 0.0251 in the test with EW-13 (Ewing's Sarcoma); -0.0274 in test [9]; -0.017 in [10]. Moreover, the Bliss excess with NH-12 (Neuroblastoma) was -0.121; in test [11] it was -0.0374.
Consider `COc1cc2ncnc(Nc3ccc(F)c(Cl)c3)c2cc1OCCCN1CCOCC1` [Gefitinib] + CC(C)n1c(=O)n(C)c2cnc3cc(F)c(-c4ccc(OCCCN5CCCCC5)nc4)cc3c21 [AZD1390] (first compound max 10 µM, 7x7, partner max 0.3 µM), for which the Bliss excess in the test with GOTO (Neuroblastoma) was -0.07; in test [1], -0.0834; in test [2], -0.0548; in test [3], -0.0595; in [4], -0.0771; in [5], -0.0546. The Bliss excess in test [6] is -0.0706; in test [7], -0.0831; in test [8], -0.0418; in the test on EW-13 (Ewing's Sarcoma), -0.0568; in [9] it was -0.0434; in test [10], -0.0739. Besides, the results for the Bliss excess (with NH-12 (Neuroblastoma); in test [11]) were -0.0643 and -0.0594, respectively.

Values taken from the supplement of paper PMC11061612.
